{"source": "paper PMC7203124", "about": "“Structural Basis for PPARα Activation by 1H-pyrazolo-[3,4-b]pyridine Derivatives” (Scientific Reports, 2020)", "biological_target": "T1, PPARα (Homo sapiens, UniProt Q07869, I272F)", "T1 construct": "gene PPARA; hPPARα LBD", "T1 sequence (Q07869 199-468 I272F limits assumed)": "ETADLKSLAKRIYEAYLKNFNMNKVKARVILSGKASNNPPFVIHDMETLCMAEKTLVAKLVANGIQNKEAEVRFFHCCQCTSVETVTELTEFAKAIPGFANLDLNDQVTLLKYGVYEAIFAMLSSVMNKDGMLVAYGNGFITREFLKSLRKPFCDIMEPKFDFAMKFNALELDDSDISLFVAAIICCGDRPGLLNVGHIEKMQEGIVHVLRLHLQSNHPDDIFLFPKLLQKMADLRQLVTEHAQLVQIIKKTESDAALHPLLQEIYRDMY", "assay": "transactivation reporter assay at […]", "format": "cell-based", "data": [{"smiles": "CC(C)(Oc1ccc(C(=O)c2ccc(Cl)cc2)cc1)C(=O)O", "note": "[fenofibric acid]", "values": [{"measurement": "transactivation reporter assay at 10 μM", "result": "while fenofibric acid showed comparable activity between WT and Ile272Phe"}]}]}
